{
  "source": "paper PMC2430034",
  "about": "“Structural Development Studies of Subtype-Selective Ligands for Peroxisome Proliferator-Activated Receptors (PPARs) Based on the 3,4-Disubstituted Phenylpropanoic Acid Scaffold as a Versatile Template” (PPAR Research, 2008)",
  "assay_type_in_all_cases": "cell-based",
  "key": {"PPARα [1]": {"target": "T1, PPARα (Homo sapiens, UniProt Q07869)", "T1 sequence (Q07869 200-468 limits assumed)": "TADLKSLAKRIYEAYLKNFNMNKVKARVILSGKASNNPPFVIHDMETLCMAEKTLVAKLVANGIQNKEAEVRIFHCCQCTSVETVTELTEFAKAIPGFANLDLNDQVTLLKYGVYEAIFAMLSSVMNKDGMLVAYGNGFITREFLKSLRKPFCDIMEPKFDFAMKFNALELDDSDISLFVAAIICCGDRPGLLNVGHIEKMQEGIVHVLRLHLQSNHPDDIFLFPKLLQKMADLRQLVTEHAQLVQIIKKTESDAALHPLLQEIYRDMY", "test": "PPARα-GAL4 chimeric receptor transactivation in HEK-293 cells", "conditions": "PPAR-GAL4 chimeric receptors, transiently transfected HEK-293 cells; ia = inactive at 10 μM"}, "PPARδ": {"target": "T2, PPARδ (Homo sapiens, UniProt Q03181)", "T2 sequence (Q03181 171-441 limits assumed)": "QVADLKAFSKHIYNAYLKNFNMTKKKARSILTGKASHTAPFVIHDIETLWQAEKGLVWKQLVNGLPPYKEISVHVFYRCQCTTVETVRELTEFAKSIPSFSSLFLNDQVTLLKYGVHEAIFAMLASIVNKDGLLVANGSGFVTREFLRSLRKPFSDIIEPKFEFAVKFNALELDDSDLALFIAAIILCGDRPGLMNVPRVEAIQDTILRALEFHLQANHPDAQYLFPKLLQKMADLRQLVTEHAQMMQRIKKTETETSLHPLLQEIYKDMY", "test": "cell-based", "conditions": "PPAR-GAL4 chimeric receptors, transiently transfected HEK-293 cells; ia = inactive at 10 μM; read-out: Transactivation activity EC50 PPARδ"}, "PPARγ [2]": {"target": "T3, PPARγ (Homo sapiens, UniProt P37231)", "T3 sequence (P37231 238-505 limits assumed)": "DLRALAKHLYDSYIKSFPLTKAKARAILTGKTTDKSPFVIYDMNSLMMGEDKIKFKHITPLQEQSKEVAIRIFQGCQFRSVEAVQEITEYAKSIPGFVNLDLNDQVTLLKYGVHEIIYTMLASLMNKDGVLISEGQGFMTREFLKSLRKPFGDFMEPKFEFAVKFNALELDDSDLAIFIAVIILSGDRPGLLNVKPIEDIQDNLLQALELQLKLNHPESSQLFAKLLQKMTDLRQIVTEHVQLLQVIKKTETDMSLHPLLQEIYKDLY", "test": "cell-based", "conditions": "read-out: Transactivation activity EC50 PPARγ"}, "VDR": {"target": "T4, VDR (Homo sapiens, UniProt P11473)", "T4 construct": "expressed in transfected cells", "T4 sequence (P11473 1-427)": "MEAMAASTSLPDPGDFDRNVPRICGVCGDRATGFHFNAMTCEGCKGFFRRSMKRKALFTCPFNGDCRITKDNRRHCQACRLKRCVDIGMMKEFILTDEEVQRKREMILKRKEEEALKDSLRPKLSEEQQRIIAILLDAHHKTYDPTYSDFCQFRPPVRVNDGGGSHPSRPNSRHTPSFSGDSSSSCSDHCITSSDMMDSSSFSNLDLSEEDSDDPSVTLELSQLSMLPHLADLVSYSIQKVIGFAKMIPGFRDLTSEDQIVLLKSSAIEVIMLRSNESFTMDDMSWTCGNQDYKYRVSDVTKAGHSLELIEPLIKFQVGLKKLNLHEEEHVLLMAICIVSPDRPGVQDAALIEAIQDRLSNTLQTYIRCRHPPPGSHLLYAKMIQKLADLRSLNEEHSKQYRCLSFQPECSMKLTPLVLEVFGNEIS", "test": "Nuclear receptor cross-reactivity transactivation, VDR", "conditions": "concentrations up to 300 nM (Figure 7)"}, "PPARγ [3]": {"target": "T5, PPARγ (Homo sapiens, UniProt P37231)", "T5 construct": "expressed in transfected cells", "T5 sequence (P37231 1-505)": "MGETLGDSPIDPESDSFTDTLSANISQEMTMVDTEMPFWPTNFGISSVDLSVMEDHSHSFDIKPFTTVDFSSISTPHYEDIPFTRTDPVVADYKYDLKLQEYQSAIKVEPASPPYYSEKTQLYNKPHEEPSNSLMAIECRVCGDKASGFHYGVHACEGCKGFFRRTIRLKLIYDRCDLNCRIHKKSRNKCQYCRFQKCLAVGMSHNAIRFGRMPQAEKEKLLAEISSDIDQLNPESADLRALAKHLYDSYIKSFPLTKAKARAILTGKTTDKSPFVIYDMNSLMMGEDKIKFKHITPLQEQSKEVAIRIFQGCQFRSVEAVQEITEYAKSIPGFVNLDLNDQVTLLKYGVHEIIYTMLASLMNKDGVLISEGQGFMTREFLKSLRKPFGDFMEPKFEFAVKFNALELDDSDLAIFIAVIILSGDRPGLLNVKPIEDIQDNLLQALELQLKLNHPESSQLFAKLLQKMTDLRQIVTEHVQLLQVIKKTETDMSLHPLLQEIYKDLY", "test": "Nuclear receptor cross-reactivity transactivation, PPARγ", "conditions": "concentrations up to 300 nM (Figure 7)"}, "LXRα": {"target": "T6, LXRα (Homo sapiens, UniProt Q13133)", "T6 construct": "expressed in transfected cells", "T6 sequence (Q13133 1-447)": "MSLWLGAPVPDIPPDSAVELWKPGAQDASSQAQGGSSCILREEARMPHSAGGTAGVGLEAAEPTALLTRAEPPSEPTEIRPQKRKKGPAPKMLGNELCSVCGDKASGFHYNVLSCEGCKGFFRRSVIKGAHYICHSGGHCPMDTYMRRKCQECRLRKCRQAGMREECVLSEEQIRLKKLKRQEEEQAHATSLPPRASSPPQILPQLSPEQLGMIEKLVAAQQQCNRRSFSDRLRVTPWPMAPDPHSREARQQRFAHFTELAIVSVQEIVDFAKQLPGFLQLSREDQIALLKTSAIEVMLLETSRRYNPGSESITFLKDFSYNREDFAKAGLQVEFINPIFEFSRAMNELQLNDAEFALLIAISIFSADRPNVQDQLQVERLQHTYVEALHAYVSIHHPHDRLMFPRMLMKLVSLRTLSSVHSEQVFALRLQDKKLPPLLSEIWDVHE", "test": "Nuclear receptor cross-reactivity transactivation, LXRα", "conditions": "concentrations up to 300 nM (Figure 7)"}, "RARα": {"target": "T7, RARα (Homo sapiens, UniProt P10276)", "T7 construct": "expressed in transfected cells", "T7 sequence (P10276 1-462)": "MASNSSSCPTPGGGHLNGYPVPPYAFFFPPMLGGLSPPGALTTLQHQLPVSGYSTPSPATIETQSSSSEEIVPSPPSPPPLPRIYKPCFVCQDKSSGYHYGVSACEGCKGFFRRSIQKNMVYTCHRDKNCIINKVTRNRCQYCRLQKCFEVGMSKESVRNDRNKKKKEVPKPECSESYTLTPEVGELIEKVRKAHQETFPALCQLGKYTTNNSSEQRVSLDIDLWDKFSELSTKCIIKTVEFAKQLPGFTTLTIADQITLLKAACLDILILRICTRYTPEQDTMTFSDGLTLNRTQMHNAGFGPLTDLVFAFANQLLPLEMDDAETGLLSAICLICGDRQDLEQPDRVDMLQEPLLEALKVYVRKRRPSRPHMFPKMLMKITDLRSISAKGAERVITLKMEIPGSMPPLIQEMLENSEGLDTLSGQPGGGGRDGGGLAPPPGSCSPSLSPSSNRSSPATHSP", "test": "Nuclear receptor cross-reactivity transactivation, RARα", "conditions": "concentrations up to 300 nM (Figure 7)"}, "RXRα": {"target": "T8, RXRα (Homo sapiens, UniProt P19793)", "T8 construct": "expressed in transfected cells", "T8 sequence (P19793 1-462)": "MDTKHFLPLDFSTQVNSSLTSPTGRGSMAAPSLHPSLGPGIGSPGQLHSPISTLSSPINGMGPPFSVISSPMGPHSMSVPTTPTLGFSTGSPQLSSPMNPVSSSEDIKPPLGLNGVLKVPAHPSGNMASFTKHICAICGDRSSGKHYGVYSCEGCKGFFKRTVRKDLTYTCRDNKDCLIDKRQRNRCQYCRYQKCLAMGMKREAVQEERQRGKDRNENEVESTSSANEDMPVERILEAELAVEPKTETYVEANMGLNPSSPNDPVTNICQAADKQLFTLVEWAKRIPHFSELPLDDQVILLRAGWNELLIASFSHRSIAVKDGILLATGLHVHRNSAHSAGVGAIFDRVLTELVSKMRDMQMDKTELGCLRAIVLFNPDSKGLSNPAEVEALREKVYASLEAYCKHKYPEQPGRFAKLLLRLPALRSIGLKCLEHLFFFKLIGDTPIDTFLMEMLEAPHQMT", "test": "Nuclear receptor cross-reactivity transactivation, RXRα", "conditions": "concentrations up to 300 nM (Figure 7)"}, "PPARα [4]": {"target": "T1, PPARα", "test": "PPARα-GAL4 chimeric receptor transactivation in CHO-K1 cells", "conditions": "human PPARα; CHO-K1 cells (footnote of Table 1); read-out: Transactivation activity EC50 PPARα Human"}, "PPARα [5]": {"target": "T9, PPARα (Canis lupus familiaris, UniProt Q95N78)", "T9 construct": "expressed in transfected cells", "T9 sequence (Q95N78 1-468)": "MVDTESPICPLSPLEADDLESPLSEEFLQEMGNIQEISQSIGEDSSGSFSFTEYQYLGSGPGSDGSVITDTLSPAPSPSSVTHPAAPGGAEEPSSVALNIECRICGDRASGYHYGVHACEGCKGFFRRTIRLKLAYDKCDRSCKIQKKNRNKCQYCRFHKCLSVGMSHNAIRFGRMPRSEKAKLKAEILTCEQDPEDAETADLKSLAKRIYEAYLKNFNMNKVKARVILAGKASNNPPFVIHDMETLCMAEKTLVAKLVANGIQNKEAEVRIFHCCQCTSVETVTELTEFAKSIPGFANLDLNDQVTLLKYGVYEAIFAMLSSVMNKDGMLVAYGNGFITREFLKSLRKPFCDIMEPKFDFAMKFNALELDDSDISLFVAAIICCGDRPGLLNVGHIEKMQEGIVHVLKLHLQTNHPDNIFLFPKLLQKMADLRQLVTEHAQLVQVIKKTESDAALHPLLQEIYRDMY", "test": "Dog PPARα transactivation (species differences)", "conditions": "CHO-K1 cells (footnote of Table 1)"}, "PPARα [6]": {"target": "T10, PPARα (Rattus norvegicus, UniProt P37230)", "T10 construct": "expressed in transfected cells", "T10 sequence (P37230 1-468)": "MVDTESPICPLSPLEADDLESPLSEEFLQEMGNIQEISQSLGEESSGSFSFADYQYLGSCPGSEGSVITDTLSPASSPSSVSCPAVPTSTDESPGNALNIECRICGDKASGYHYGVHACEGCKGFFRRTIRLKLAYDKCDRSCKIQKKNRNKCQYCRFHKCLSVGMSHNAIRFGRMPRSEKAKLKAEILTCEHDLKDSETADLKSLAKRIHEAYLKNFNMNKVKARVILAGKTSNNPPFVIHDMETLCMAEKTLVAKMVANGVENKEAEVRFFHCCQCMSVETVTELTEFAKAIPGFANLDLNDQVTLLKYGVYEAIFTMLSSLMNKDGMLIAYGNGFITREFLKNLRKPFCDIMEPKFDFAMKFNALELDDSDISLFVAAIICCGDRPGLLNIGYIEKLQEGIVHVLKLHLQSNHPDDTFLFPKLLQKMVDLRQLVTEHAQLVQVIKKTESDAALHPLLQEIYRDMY", "test": "Rat PPARα transactivation (species differences)", "conditions": "CHO-K1 cells (footnote of Table 1)"}},
  "note": "pEC50: −log10 of the molar value.",
  "data": [
    {"smiles": "CCCCOc1ccc(C[C@H](CC)C(=O)O)cc1CNC(=O)c1ccc(C(F)(F)F)cc1F", "note": "[Compound 65, (S)-2-{3-[(2-fluoro-4-trifluoromethylbenzoylamino)methyl]-4-buthoxy-benzyl}butyric acid]", "values": [
      {"measurement": "pEC50", "setting": "PPARα [1]", "result": 6.60},
      {"measurement": "pEC50", "setting": "PPARδ", "result": 9.04},
      {"measurement": "pEC50", "setting": "PPARγ [2]", "result": 5.96},
      {"measurement": "activation of VDR", "setting": "VDR", "result": "did not significantly activate"},
      {"measurement": "activation of PPARγ", "setting": "PPARγ [3]", "result": "did not significantly activate"},
      {"measurement": "activation of LXRα", "setting": "LXRα", "result": "did not significantly activate"},
      {"measurement": "activation of RARα", "setting": "RARα", "result": "did not significantly activate"},
      {"measurement": "activation of RXRα", "setting": "RXRα", "result": "did not significantly activate"}
    ]},
    {"smiles": "CC[C@@H](Cc1ccc(OC)c(C(=O)NCc2ccc(C(F)(F)F)cc2)c1)C(=O)O", "note": "[KCL, (S)-2-[4-methoxy-3-(4-trifluoromethylbenzylcarbamoyl)phenylmethyl]butyric acid]", "values": [
      {"measurement": "pEC50", "setting": "PPARα [4]", "result": 7.22},
      {"measurement": "pEC50", "setting": "PPARα [5]", "result": 6.80},
      {"measurement": "pEC50", "setting": "PPARα [6]", "result": 5.28}
    ]}
  ]
}
